According to the kinase profiling compilation of Christmann-Franck et al. (2016):

Tests used:
Test in all cases: radiometric filter-binding kinase assay
[1] = target: MYLK (human) (UniProt Q15746)
[2] = target: MKNK2 (human) (UniProt Q9HBH9)
[3] = target: MAP2K2 (human) (UniProt P36507)
[4] = target: IKBKB (human) (UniProt O14920)
[5] = target: PAK6 (human) (UniProt Q9NQU5)
[6] = target: MAP2K1 (human) (UniProt Q02750)
[7] = target: PIM1 (human) (UniProt P11309)
[8] = target: BTK (human) (UniProt Q06187)
[9] = target: TBK1 (human) (UniProt Q9UHD2)
[10] = target: DAPK1 (human) (UniProt P53355)
Sequence of DAPK1 (human) (P53355 whole entry, looked up): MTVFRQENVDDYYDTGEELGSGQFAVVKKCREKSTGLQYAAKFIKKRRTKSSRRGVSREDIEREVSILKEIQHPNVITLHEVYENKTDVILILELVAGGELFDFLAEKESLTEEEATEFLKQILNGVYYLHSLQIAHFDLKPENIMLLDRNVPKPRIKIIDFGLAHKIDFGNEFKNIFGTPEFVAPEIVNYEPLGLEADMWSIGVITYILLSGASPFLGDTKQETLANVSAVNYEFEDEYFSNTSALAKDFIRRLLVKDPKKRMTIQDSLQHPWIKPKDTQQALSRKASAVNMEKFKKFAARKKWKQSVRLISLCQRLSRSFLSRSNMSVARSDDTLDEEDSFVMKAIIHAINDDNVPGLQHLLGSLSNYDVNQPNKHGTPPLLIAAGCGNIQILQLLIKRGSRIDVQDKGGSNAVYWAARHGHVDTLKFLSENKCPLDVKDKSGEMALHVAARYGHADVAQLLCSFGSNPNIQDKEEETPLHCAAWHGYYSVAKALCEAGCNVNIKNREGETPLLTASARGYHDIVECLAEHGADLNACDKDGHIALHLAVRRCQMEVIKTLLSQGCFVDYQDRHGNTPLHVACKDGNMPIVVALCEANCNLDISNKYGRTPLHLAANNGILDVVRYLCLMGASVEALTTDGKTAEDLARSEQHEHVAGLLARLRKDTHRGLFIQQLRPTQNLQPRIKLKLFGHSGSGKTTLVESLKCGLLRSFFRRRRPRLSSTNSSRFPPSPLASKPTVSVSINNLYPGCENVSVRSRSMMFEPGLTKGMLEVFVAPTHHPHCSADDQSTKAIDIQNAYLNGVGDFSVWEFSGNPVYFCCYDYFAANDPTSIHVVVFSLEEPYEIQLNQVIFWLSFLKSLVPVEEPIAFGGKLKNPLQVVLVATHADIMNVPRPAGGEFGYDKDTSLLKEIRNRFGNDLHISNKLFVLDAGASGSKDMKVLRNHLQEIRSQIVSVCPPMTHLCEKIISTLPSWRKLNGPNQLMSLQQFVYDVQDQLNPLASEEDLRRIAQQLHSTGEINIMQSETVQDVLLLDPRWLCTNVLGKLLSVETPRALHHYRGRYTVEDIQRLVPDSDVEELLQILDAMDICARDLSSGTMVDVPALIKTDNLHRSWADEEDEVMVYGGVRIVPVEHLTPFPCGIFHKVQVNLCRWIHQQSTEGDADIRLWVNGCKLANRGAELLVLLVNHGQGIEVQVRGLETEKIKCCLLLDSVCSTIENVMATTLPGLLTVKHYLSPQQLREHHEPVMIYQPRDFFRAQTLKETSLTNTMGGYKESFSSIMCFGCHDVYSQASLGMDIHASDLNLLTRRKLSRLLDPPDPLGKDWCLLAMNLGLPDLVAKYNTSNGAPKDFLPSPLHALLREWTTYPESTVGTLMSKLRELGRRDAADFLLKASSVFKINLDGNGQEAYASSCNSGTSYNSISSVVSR

[11] = target: NEK6 (human) (UniProt Q9HC98)
Sequence of NEK6 (human) (Q9HC98 whole entry, looked up): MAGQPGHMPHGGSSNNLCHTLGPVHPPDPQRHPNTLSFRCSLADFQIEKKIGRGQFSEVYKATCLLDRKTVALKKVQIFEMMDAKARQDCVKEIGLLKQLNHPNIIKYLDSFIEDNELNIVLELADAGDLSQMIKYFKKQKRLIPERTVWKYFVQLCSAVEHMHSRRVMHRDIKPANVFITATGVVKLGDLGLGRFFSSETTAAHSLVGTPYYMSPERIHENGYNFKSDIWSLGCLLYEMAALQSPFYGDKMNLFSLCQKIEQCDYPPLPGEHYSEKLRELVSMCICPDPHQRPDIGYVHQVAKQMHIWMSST

[12] = target: RPS6KA5 KD1 KD2 (human) (UniProt O75582)
[13] = target: EPHA4 (human) (UniProt P54764)
[14] = target: EEF2K (human) (UniProt O00418)
[15] = target: EPHB4 (human) (UniProt P54760)
[16] = target: INSRR (human) (UniProt P14616)
[17] = target: PIM3 (human) (UniProt Q86V86)
[18] = target: PKN2 (human) (UniProt Q16513)
[19] = target: MAPKAPK2 (human) (UniProt P49137)
[20] = tested on: PAK2 (human), Q13177 [T402E]
[21] = target: SRPK1 (human) (UniProt Q96SB4)
[22] = target: PIM2 (human) (UniProt Q9P1W9)
Sequence of PIM2 (human) (Q9P1W9 whole entry, looked up): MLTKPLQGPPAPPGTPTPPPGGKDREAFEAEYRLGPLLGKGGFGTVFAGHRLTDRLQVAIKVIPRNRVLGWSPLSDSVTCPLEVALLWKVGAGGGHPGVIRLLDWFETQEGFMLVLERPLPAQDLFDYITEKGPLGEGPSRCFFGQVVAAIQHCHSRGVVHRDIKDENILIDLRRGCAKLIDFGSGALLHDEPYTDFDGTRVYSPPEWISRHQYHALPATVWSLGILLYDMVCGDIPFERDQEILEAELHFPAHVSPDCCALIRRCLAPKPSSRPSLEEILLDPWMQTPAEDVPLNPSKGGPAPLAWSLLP

[23] = target: CDK2 CCNA2 (human) (UniProt P20248+P24941)
[24] = target: CHEK1 (human) (UniProt O14757)
[25] = target: MAP3K9 (human) (UniProt P80192)
[26] = target: MARK4 (human) (UniProt Q96L34)
[27] = target: TTK (human) (UniProt P33981)
[28] = target: YES1 (human) (UniProt P07947)
[29] = tested on: RPS6KB1 (human), P23443 [T412E]
[30] = target: GCK (human) (UniProt Q12851)
Sequence of GCK (human) (Q12851 whole entry, looked up): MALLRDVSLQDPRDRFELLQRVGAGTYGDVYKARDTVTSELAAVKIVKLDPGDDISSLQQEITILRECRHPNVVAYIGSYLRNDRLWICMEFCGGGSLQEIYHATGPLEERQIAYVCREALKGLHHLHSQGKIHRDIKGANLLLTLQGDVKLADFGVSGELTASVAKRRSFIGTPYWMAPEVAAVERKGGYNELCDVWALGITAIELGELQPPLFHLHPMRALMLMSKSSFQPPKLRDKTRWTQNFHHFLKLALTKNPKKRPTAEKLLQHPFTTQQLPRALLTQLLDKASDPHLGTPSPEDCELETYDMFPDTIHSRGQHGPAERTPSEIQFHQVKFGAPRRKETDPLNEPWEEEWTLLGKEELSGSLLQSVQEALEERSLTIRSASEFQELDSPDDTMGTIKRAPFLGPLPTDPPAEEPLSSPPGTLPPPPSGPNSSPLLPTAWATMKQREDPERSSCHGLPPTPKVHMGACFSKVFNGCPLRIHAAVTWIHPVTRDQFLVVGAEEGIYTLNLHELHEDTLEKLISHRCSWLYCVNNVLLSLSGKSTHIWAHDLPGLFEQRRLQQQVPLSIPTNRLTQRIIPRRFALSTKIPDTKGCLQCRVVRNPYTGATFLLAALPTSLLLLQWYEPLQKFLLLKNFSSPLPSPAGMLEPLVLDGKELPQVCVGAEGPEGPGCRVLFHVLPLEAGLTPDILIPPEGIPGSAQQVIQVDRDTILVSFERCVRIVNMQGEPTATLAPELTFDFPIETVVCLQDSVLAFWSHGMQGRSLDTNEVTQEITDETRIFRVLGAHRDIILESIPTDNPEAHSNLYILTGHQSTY

[31] = target: CSNK2A1 (human) (UniProt P68400)
[32] = target: MARK3 (human) (UniProt P27448)
[33] = target: MAPK9 (human) (UniProt P45984)
[34] = target: EPHB1 (human) (UniProt P54762)
[35] = target: STK3 (human) (UniProt Q13188)
[36] = target: MAP3K5 (human) (UniProt Q99683)

Sequence of PIM1 (human) (P11309 whole entry, looked up): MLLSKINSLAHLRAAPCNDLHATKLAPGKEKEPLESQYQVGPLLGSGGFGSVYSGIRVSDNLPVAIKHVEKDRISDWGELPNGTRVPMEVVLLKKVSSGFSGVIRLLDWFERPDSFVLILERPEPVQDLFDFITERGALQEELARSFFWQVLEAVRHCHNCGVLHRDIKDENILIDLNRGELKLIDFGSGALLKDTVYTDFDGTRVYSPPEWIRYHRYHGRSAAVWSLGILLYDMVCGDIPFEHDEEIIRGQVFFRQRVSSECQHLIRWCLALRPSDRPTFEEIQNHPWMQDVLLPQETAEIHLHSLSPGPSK
Sequence of MYLK (human) (Q15746 whole entry, looked up): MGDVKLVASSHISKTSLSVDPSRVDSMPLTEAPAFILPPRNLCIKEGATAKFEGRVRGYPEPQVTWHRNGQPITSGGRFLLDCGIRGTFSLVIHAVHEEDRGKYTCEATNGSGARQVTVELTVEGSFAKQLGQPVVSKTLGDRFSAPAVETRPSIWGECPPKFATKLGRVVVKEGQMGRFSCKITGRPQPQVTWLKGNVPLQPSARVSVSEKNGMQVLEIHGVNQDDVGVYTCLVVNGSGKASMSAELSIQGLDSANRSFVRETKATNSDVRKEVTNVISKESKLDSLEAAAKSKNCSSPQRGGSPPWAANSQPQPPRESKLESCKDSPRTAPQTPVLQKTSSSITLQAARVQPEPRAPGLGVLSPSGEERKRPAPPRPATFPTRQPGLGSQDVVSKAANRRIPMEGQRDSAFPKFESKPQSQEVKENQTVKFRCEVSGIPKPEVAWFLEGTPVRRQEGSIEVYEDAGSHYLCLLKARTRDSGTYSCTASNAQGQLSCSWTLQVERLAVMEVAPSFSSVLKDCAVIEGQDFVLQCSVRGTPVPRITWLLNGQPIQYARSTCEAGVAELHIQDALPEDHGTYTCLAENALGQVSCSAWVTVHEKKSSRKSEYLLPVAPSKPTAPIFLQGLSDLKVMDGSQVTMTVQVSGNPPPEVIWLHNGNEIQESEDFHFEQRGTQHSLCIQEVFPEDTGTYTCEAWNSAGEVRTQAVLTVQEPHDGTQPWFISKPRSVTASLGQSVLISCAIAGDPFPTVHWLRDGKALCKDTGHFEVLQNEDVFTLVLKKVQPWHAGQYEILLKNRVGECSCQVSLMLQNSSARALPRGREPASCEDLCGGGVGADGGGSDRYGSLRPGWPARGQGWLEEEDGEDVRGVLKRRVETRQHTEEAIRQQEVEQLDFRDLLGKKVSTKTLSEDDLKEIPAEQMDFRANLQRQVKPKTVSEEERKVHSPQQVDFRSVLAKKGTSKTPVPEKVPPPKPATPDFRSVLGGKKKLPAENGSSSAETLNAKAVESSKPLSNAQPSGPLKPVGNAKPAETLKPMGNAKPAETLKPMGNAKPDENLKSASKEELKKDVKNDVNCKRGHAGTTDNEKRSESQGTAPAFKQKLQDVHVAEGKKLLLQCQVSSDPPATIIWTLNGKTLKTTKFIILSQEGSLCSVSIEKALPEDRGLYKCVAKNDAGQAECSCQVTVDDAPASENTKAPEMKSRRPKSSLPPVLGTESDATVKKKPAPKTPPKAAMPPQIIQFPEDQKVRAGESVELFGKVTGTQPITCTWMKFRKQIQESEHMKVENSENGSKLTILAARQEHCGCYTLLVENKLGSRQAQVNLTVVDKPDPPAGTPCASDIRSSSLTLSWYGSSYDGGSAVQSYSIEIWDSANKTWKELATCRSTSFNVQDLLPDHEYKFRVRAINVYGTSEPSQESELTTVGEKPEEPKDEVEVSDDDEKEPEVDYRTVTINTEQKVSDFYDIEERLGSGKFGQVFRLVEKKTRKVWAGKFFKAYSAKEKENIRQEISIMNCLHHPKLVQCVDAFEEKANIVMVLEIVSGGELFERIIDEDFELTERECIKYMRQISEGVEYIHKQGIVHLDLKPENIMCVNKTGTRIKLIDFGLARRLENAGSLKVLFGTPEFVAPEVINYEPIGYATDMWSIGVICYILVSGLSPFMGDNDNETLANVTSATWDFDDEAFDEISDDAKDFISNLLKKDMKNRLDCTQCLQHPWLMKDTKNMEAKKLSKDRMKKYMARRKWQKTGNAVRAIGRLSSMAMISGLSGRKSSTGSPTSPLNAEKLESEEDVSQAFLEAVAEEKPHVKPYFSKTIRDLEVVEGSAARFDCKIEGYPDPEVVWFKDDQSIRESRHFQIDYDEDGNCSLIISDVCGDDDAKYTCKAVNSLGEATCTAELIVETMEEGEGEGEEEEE

FC(F)(F)c1ccc(-c2ccc(Oc3cncc4sc(-c5nn[nH]n5)cc34)cc2)cc1
residual activity ([1]; compound 1.0 µM): 94%
residual activity ([1]; compound 10.0 µM): 42%
residual activity ([2]; compound 1.0 µM): 105%
residual activity ([2]; compound 10.0 µM): 64%
residual activity ([3]; compound 1.0 µM): 87%
residual activity ([3]; compound 10.0 µM): 70%
residual activity ([4]; compound 1.0 µM): 89%
residual activity ([4]; compound 10.0 µM): 56%
residual activity ([5]; compound 1.0 µM): 121%
residual activity ([5]; compound 10.0 µM): 110%
residual activity ([6]; compound 1.0 µM): 87%
residual activity ([6]; compound 10.0 µM): 31%
residual activity ([7]; compound 1.0 µM): 70%
residual activity ([7]; compound 10.0 µM): 17%
residual activity ([8]; compound 1.0 µM): 98%
residual activity ([8]; compound 10.0 µM): 84%
residual activity ([9]; compound 1.0 µM): 109%
residual activity ([9]; compound 10.0 µM): 63%
residual activity ([10]; compound 1.0 µM): 47%
residual activity ([10]; compound 10.0 µM): 17%
residual activity ([11]; compound 1.0 µM): 93%
residual activity ([11]; compound 10.0 µM): 83%
residual activity ([12]; compound 1.0 µM): 90%
residual activity ([12]; compound 10.0 µM): 22%
residual activity ([13]; compound 1.0 µM): 109%
residual activity ([13]; compound 10.0 µM): 106%
residual activity ([14]; compound 1.0 µM): 106%
residual activity ([14]; compound 10.0 µM): 80%
residual activity ([15]; compound 1.0 µM): 109%
residual activity ([15]; compound 10.0 µM): 110%
residual activity ([16]; compound 1.0 µM): 67%
residual activity ([16]; compound 10.0 µM): 27%
residual activity ([17]; compound 1.0 µM): 74%
residual activity ([17]; compound 10.0 µM): 31%
residual activity ([18]; compound 1.0 µM): 98%
residual activity ([18]; compound 10.0 µM): 54%
residual activity ([19]; compound 1.0 µM): 97%
residual activity ([19]; compound 10.0 µM): 94%
residual activity ([20]; compound 1.0 µM): 109%
residual activity ([20]; compound 10.0 µM): 101%
residual activity ([21]; compound 1.0 µM): 112%
residual activity ([21]; compound 10.0 µM): 105%
residual activity ([22]; compound 1.0 µM): 87%
residual activity ([22]; compound 10.0 µM): 36%
residual activity ([23]; compound 1.0 µM): 79%
residual activity ([23]; compound 10.0 µM): 47%
residual activity ([24]; compound 1.0 µM): 118%
residual activity ([24]; compound 10.0 µM): 65%
residual activity ([25]; compound 1.0 µM): 126%
residual activity ([25]; compound 10.0 µM): 91%
residual activity ([26]; compound 1.0 µM): 106%
residual activity ([26]; compound 10.0 µM): 97%
residual activity ([27]; compound 1.0 µM): 83%
residual activity ([27]; compound 10.0 µM): 63%
residual activity ([28]; compound 1.0 µM): 100%
residual activity ([28]; compound 10.0 µM): 87%
residual activity ([29]; compound 1.0 µM): 98%
residual activity ([29]; compound 10.0 µM): 50%
residual activity ([30]; compound 1.0 µM): 68%
residual activity ([30]; compound 10.0 µM): 17%
residual activity ([31]; compound 1.0 µM): 20%
residual activity ([31]; compound 10.0 µM): 4%
residual activity ([32]; compound 1.0 µM): 100%
residual activity ([32]; compound 10.0 µM): 51%
residual activity ([33]; compound 1.0 µM): 113%
residual activity ([33]; compound 10.0 µM): 100%
residual activity ([34]; compound 1.0 µM): 108%
residual activity ([34]; compound 10.0 µM): 100%
residual activity ([35]; compound 1.0 µM): 93%
residual activity ([35]; compound 10.0 µM): 76%
residual activity ([36]; compound 1.0 µM): 95%
residual activity ([36]; compound 10.0 µM): 72%
